Experimental data: patent US20190002436A1, “RESPIRATORY SYNCYTIAL VIRUS INHIBITORS” (MEDIVIR AB, priority 2015, published 2019)
pEC50: −log10 of the molar value.

These compounds were tested on RSV (Long) (assay: RSV cytopathic effect (CPE)-based viral replication assay). Conditions: HEp-2 cells infected with RSV Long at MOI 0.015; 3 days at 37° C.; cell viability by CellTiter-Glo luminescence; read-out: EC50 (nm).
Assay type: cell-based, respiratory syncytial virus (RSV)
How it was run: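 HEp-2 cells, 2,500 per well in DMEM with 2% heat-inactivated FBS, treated with 10-point compound dilutions and infected with RSV Long at MOI 0.015. After 3 days at 37 °C, 5% CO2, viability read by CellTiter-Glo luminescence; EC50 derived from CPE data.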

Row | SMILES | pEC50
1 | CS(=O)(=O)N1CCC2(CC1)C(=O)N(Cc1ncc3ccccc3c1C1CNC(=O)C1)c1cnccc12 (stereo not drawn) [Example 2018] | 7.30

Same assay, conditions: human respiratory syncytial virus, HEp-2, 72 h, HEp-2 cells infected with RSV Long at MOI 0.015; 3 days at 37° C.; cell viability by CellTiter-Glo luminescence; read-out: EC50 (nm)

Row | SMILES | pEC50
2 | COC(=O)N1CCC(n2c(=O)n(Cc3ncc4ccccc4c3CCCCO)c3cccc(Cl)c32)CC1 [Example 16, Methyl 4-(7-chloro-3-((4-(4-hydroxybutyl)isoquinolin-3-yl)methyl)-2-oxo-2,3-dihydro-1H-benzo[d]imidazol-1-yl)piperidine-1-carboxylate] | 7.72
3 | CS(=O)(=O)Nc1cncc(-c2c(CN3C(=O)C4(CN(C(=O)C5(N)CC5)C4)c4ccccc43)ncc3ccccc23)c1 [Example 2006] | 7.59
4 | NC1(C(=O)N2CC3(C2)C(=O)N(Cc2ncc4ccccc4c2-c2ccc(S(N)(=O)=O)nc2)c2ccccc23)CC1 [Example 124, 5-(3-((1-(1-Aminocyclopropanecarbonyl)-2′-oxospiro[azetidine-3,3′-indolin]-1′-yl)methyl)isoquinolin-4-yl)pyridine-2-sulfonamide] | 8.01
5 | CNC(=O)O[C@H]1C[C@@]2(C1)C(=O)N(Cc1ncc3ccccc3c1-c1ccc(C#N)nc1)c1ccccc12 [Example 133, (1R,3R)-1′-((4-(6-cyanopyridin-3-yl)isoquinolin-3-yl)methyl)-2′-oxospiro[cyclobutane-1,3′-indolin]-3-yl methylcarbamate] | 8.47
6 | CS(=O)(=O)N1CC2(C1)C(=O)N(Cc1ncc3ccccc3c1-c1ccc(C#N)nc1)c1ccccc12 [Example 45] | 8.52
7 | NC(=O)c1ccc(-c2c(CN3C(=O)C4(CN(C(=O)C5(N)CC5)C4)c4ccccc43)ncc3ccccc23)cn1 [Example 2008] | 7.82
8 | O=c1n(Cc2ncc3c(F)cccc3c2CCCCO)c2cnccc2n1C1CC1 [Example 29, 1-Cyclopropyl-3-((8-fluoro-4-(4-hydroxybutyl)isoquinolin-3-yl)methyl)-1H-imidazo[4,5-c]pyridin-2(3H)-one] | 6.80
9 | COC(=O)N1CCC2(CC1)C(=O)N(Cc1ncc3cc(Cl)ccc3c1-c1cccnc1)c1cnccc12 [Example 164, Methyl 1′-((7-chloro-4-(pyridin-3-yl)isoquinolin-3-yl)methyl)-2′-oxo-1′,2′-dihydrospiro[piperidine-4,3′-pyrrolo[2,3-c]pyridine]-1-carboxylate] | 8.80
10 | NCC(=O)N1CC2(C1)C(=O)N(Cc1ncc3ccccc3c1-c1cccnc1)c1ccccc12 [Example 152, 1-(2-Aminoacetyl)-1′-((4-(pyridin-3-yl)isoquinolin-3-yl)methyl)spiro[azetidine-3,3′-indolin]-2′-one] | 7.92
11 | N#Cc1ccc(-c2c(CN3c4ccccc4[C@]4(C[C@@H](O)C4)C3=O)ncc3ccccc23)cn1 [Example 83] | 8.05
12 | NC(=O)c1ccc(-c2c(CN3C(=O)C4(CCN(C(=O)[C@@H]5CCCN5)CC4)c4ccncc43)ncc3ccccc23)cn1 [Example 2033] | 7.57
13 | CNC1(C(=O)N2CCC3(CC2)C(=O)N(Cc2ncc4ccccc4c2-c2ccc(C#N)nc2)c2cnccc23)CC1 [Example 67, 5-(3-((1-(1-(Methylamino)cyclopropanecarbonyl)-2′-oxospiro[piperidine-4,3′-pyrrolo[2,3-c]pyridin]-1′(2′H)-yl)methyl)isoquinolin-4-yl)picolinonitrile] | 8.09
14 | NCC(N1CC2(C1)C(=O)N(Cc1ncc3ccccc3c1-c1cccnc1)c1ccccc12)C(F)(F)F (stereo not drawn) [Example 2037] | 9.09
15 | NC1(C(=O)N2CCC3(CC2)C(=O)N(Cc2ncc4ccccc4c2-c2cn[nH]c2)c2cnccc23)CC1 [Example 2030] | 8.24
16 | CN(C)C1(C(=O)N2CC3(C2)C(=O)N(Cc2ncc4ccccc4c2-c2ccc(C#N)nc2)c2ccccc23)CC1 [Example 62, 5-(3-((1-(1-(dimethylamino)cyclopropanecarbonyl)-2′-oxospiro[azetidine-3,3′-indolin]-1′-yl)methyl)isoquinolin-4-yl)picolinonitrile] | 8.00
17 | CS(=O)(=O)N1CCC2(CC1)C(=O)N(Cc1ncc3ccccc3c1-c1cc[nH]c1)c1cnccc12 [Example 2023] | 7.37
18 | O=c1n(Cc2ncc3ccccc3c2CCCCO)c2cnccc2n1-c1ccc(F)cc1 [Example 4c, 1-(4-fluorophenyl)-3-((4-(4-hydroxybutyl)isoquinolin-3-yl)methyl)-1H-imidazo[4,5-c]pyridin-2(3H)-one] | 7.70
19 | NC1(C(=O)N2CCC3(CC2)C(=O)N(Cc2ncc4ccccc4c2-c2ncco2)c2cnccc23)CC1 [Example 2021] | 6.16
20 | CNC(=O)N1CC2(C1)C(=O)N(Cc1ncc3ccccc3c1CCCCO)c1ccccc12 [Example 38, 1′-((4-(4-hydroxybutyl)isoquinolin-3-yl)methyl)-N-methyl-2′-oxospiro[azetidine-3,3′-indoline]-1-carboxamide] | 8.19
21 | O=c1n(Cc2ncc3ccccc3c2CCCCO)c2cnccc2n1CC(F)(F)F [Example 3c, 3-((4-(4-hydroxybutyl)isoquinolin-3-yl)methyl)-1-(2,2,2-trifluoroethyl)-1H-imidazo[4,5-c]pyridin-2(3H)-one] | 7.64

More lines, now with the values ahead:

Row | pEC50 | SMILES
22 | 8.28 | O=C(N1CCC2(CC1)C(=O)N(Cc1ncc3ccccc3c1-c1cccnc1)c1cnccc12)C(F)(F)F [Example 129b, 1′-((4-(Pyridin-3-yl)isoquinolin-3-yl)methyl)-1-(2,2,2-trifluoroacetyl)spiro[piperidine-4,3′-pyrrolo[2,3-c]pyridin]-2′(1′H)-one]
23 | 8.66 | CC(C)(C)OC(=O)N1CC2(C1)C(=O)N(Cc1ncc3ccccc3c1CCCCO)c1ccccc12 [Example 36c, tert-butyl 1′-((4-(4-hydroxybutyl)isoquinolin-3-yl)methyl)-2′-oxospiro[azetidine-3,3′-indoline]-1-carboxylate]
24 | 8.89 | CS(=O)(=O)N1CCC2(CC1)C(=O)N(Cc1ncc3cc(Cl)ccc3c1-c1cccnc1)c1cnccc12 [Example 160c, 1′-((7-chloro-4-(pyridin-3-yl)isoquinolin-3-yl)methyl)-1-(methylsulfonyl)spiro[piperidine-4,3′-pyrrolo[2,3-c]pyridin]-2′(1′H)-one]
25 | 8.14 | COC(=O)NC1CC2(C1)C(=O)N(Cc1ncc3ccccc3c1-c1ccc(C#N)nc1)c1ccccc12 (stereo not drawn) [Example 84-1]
26 | 7.12 | COC(=O)N1CCC(n2c(=O)n(Cc3ncc4ccccc4c3CCCCO)c3cc(F)c(F)cc32)CC1 [Example 14c, methyl 4-(5,6-difluoro-3-((4-(4-hydroxybutyl)isoquinolin-3-yl)methyl)-2-oxo-2,3-dihydro-1H-benzo[d]imidazol-1-yl)piperidine-1-carboxylate]
27 | 8.29 | CC1(n2c(=O)n(Cc3ncc4ccccc4c3-c3ccc(C#N)nc3)c3ccccc32)CC1 [Example 90b, 5-(3-((3-(1-methylcyclopropyl)-2-oxo-2,3-dihydro-1H-benzo[d]imidazol-1-yl)methyl)isoquinolin-4-yl)picolinonitrile]
28 | 8.17 | COC(=O)N1CC2(C1)C(=O)N(Cc1ncc3ccccc3c1CCCCO)c1ccccc12 [Example 28b, Methyl 1′-((4-(4-hydroxybutyl)isoquinolin-3-yl)methyl)-2′-oxospiro[azetidine-3,3′-indoline]-1-carboxylate]
29 | 8.89 | CS(=O)(=O)N1CCC2(CC1)C(=O)N(Cc1ncc3cc(Cl)ccc3c1-c1cncs1)c1ccccc12 [Example 169b, 1-((7-chloro-4-(thiazol-5-yl)isoquinolin-3-yl)methyl)-1′-(methylsulfonyl)spiro[indoline-3,4′-piperidin]-2-one]
30 | 8.70 | NC(=O)N1CCC2(CC1)C(=O)N(Cc1ncc3ccccc3c1-c1cccnc1)c1cnccc12 [Example 135b, 2′-oxo-1′-((4-(pyridin-3-yl)isoquinolin-3-yl)methyl)-1′,2′-dihydrospiro[piperidine-4,3′-pyrrolo[2,3-c]pyridine]-1-carboxamide]
31 | 8.62 | CN(C)C(=O)c1ccc(-c2c(CN3C(=O)C4(CN(C(=O)C5(N)CC5)C4)c4ccccc43)ncc3ccccc23)cn1 [Example 121b, 5-(3-((1-(1-Aminocyclopropanecarbonyl)-2′-oxospiro[azetidine-3,3′-indolin]-1′-yl)methyl)isoquinolin-4-yl)-N,N-dimethylpicolinamide]
32 | 7.72 | CS(=O)(=O)c1ccc(-c2c(Cn3c(=O)n(C4CC4)c4ccncc43)ncc3ccccc23)cn1 [Example 70c, 1-Cyclopropyl-3-((4-(6-(methylsulfonyl)pyridin-3-yl)isoquinolin-3-yl)methyl)-1H-imidazo[4,5-c]pyridin-2(3H)-one]
33 | 7.60 | N#Cc1ccc(-c2c(CN3C(=O)C4(CN(C(=O)C5(N)CC5)C4)c4ccccc43)ncc3ccccc23)cn1 [Example 60c, 5-(3-((1-(1-Aminocyclopropanecarbonyl)-2′-oxospiro[azetidine-3,3′-indolin]-1′-yl)methyl)isoquinolin-4-yl)picolinonitrile]
34 | 8.55 | COC(=O)N1CC2(C1)C(=O)N(Cc1ncc3ccccc3c1-c1ccc(C#N)nc1)c1ccccc12 [Example 44c, Methyl 1′-((4-(6-cyanopyridin-3-yl)isoquinolin-3-yl)methyl)-2′-oxospiro[azetidine-3,3′-indoline]-1-carboxylate]

Same assay, conditions: human respiratory syncytial virus, HEp-2, 72 h, read-out: EC50 (nm)

Row | SMILES | pEC50
35 | COC(=O)N1CCC2(CC1)C(=O)N(Cc1ncc3ccccc3c1-c1cccnc1)c1cnccc12 [Example 144, Methyl 2′-oxo-1′-((4-(pyridin-3-yl)isoquinolin-3-yl)methyl)-1′,2′-dihydrospiro[piperidine-4,3′-pyrrolo[2,3-c]pyridine]-1-carboxylate] | 8.96
36 | COC(=O)N1CCC2(CC1)C(=O)N(Cc1ncc3ccccc3c1-c1ccc(C#N)nc1)c1cnccc12 [Example 13, Methyl 1′-((4-(6-cyanopyridin-3-yl)isoquinolin-3-yl)methyl)-2′-oxo-1′,2′-dihydrospiro[piperidine-4,3′-pyrrolo[2,3-c]pyridine]-1-carboxylate] | 8.52
